From US20230039816A1, “METHOD FOR INDUCING HEPATOCYTE PLASTICITY” (Public University Corporation Yokohama City University, priority 2019, published 2023)

How the values were obtained:
[1] = test system: old N-Heps (D52-, D62-, D72-, D82-Hep); assay: Plasticity induction of old N-Heps in RM with epigenetic regulators; type: cell-based, human; details: RM with 0.25 mM NaB, 0.5 mM VPA, 10 μM Trany, 0.5 μM RG108 or 0.5 μM BIX
Protocol: (§1) The medium was changed on day 1, 3, and 5. To block the PI3K and MAPK signaling pathways, 10 μM LY29002 and a given dose of PD0325902 (0.01 μM˜1 μM) were each added to RM. […] To regulate epigenetic modification, 0.25 mM NaB, 0.5 mM VPA, 10 μM Trany, 0.5 μM RG108 and 0.5 μM BIX were added in RM. The number of cells was analyzed using an Incell analyzer 2000 (GE Healthcare) combined with Hoechst 33342 staining (Invitrogen).

[2] = test system: D22-Hep; assay: Induction of proliferation of D22-Hep in reprogramming medium (RM); type: cell-based, human; details: 6 days in BM+SMs/RM; PD0325901 0.01-1 μM, LY294002 10 μM, DZNep 0.1 μM, FGF2 added to BM+SMs
Protocol: as §1

[3] = test system: elderly model (mice fed CDE diet); assay: Induction of hepatic progenitor cells in elderly mice on CDE diet; type: in vivo
Text: Finally, we investigated whether HDACi could improve the induction of hepatic progenitor cells in elderly models. To induce hepatic progenitor cells in mice, we fed young and elderly mice with a choline-deficient, ethionine-supplemented (CDE) diet for 21 days.

[4] = test system: PHHs; assay: Plasticity induction of primary human hepatocytes; type: cell-based; details: PHHs in RM+NaB vs RM
Protocol: The cryopreserved PHHs were thawed according to the manufacturer's instructions. For the positive control experiments, PHHs were cultured on collagen I-coated culture dishes at a density of 1×10^5 cells/cm^2 using Williams E medium containing 5% FBS, 1 μM dexamethasone, 100 IU/mL penicillin (Thermo Fisher Scientific), 100 μg/mL streptomycin (Thermo Fisher Scientific), 4 μg/mL Human Recombinant Insulin (Sigma), 2 mM GlutaMAX (Thermo Fisher Scientific), and 15 mM HEPES (Sigma). After 24 h, the supernatant from PHHs was collected for ALB analysis. […] At day 0 of culture, 5% FBS was used to improve cell adherence. After 24 h, the medium was exchanged with a fresh medium and subsequently changed every 2 days.

[5] = test system: EZH2; assay: EZH2 transcription by Q-PCR in reprogrammed hepatocytes; type: cell-based, human; details: RM treated D22-Hep
Protocol: The medium was changed on day 1, 3, and 5. To block the PI3K and MAPK signaling pathways, 10 μM LY29002 and a given dose of PD0325902 (0.01 μM 1 μM) were each added to RM. […] To regulate epigenetic modification, 0.25 mM NaB, 0.5 mM VPA, 10 μM Trany, 0.5 μM RG108 and 0.5 μM BIX were added in RM. […] Total RNA was isolated using a PureLinkTM RNA Mini Kit.

[6] = test system: D22-pHC; assay: Hepatocyte differentiation from pHC; type: cell-based, human; details: HDM with 3 μM RA, 15 days
Protocol: The hepatocyte differentiation of pHCs was initiated at about 90% confluence. For 8 days, the medium was changed to HDM containing 3 μM RA and for another 7 days, the medium was changed to RA-free HDM. The medium was changed every 2 days. The total hepatocyte differentiation period was 15 days.

Row | Compound | proliferation of pHCs induced from D52-Heps [1] | induced cellular proliferation of D22-Hep [2] | further results
1 | N[C@@H]1C[C@H]1c1ccccc1 (racemic) [tranylcypromine] | such promotion was not detectable |  | 
2 | COc1cc2nc(N3CCCN(C)CC3)nc(NC3CCN(Cc4ccccc4)CC3)c2cc1OC [BIX01294] | such promotion was not detectable |  | 
3 | Cl.Nc1nccc2c1ncn2[C@@H]1C=C(CO)[C@@H](O)[C@H]1O [DZNep, 3-deazaneplanocin A hydrochloride] |  | significant attenuation of the induced cellular proliferation | 
4 | CCCC(=O)[O-].[Na+] [NaB, sodium butyrate] | markedly promoted the proliferation of pHCs |  | survival rate ([3]; CDE diet): improved; induced Ki67 positive and Epcam positive population ([3]; CDE diet 21 days, liver sections): significantly increased; plasticity induction efficiency [4]: significantly increased the plasticity induction efficiency
5 | O=C(NOC[C@H](O)CO)c1ccc(F)c(F)c1Nc1ccc(I)cc1F [PD0325901] |  | inhibited the FGF2-mediated cellular proliferation in a dose-dependent manner | EZH2 transcription [5]: suppressed
6 | O=C(O)C(Cc1c[nH]c2ccccc12)N1C(=O)c2ccccc2C1=O (stereo not shown) [RG108] | such promotion was not detectable |  | 
7 | CCCC(CCC)C(=O)O [VPA, valproic acid] | markedly promoted the proliferation of pHCs |  | 
8 | CC1=C(/C=C/C(C)=C/C=C/C(C)=C/C(=O)O)C(C)(C)CCC1 [retinoic acid] |  |  | ALB production and hepatocyte morphology [6]: significant improvement in ALB production and typical hepatocyte morphology
9 | FGF2: Recombinant Human FGF2, member of the FGF family |  | the induced proliferative ability greatly improved | 
